Earlier results, collected in patent publication US9913866B2, “Selective cell targeting using adenovirus and chemical dimers” (priority 2012, dated 2018).

Assays:
FKBP and wt FRB domain = FKBP and wt FRB domain (Homo sapiens, UniProt P62942)
[1] = target: FKBP and a mutant FRB domain (mTOR mutation T2098L) (Homo sapiens, UniProt P42345+P62942, T2098L)
Sequence of FKBP and a mutant FRB domain (mTOR mutation T2098L) (P42345 2012-2144 T2098L limits assumed): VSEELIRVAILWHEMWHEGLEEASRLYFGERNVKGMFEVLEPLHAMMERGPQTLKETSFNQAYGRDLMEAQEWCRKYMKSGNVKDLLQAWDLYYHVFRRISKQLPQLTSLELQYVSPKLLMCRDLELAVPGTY
Sequence of FKBP and a mutant FRB domain (mTOR mutation T2098L) (P62942 2-108 limits assumed): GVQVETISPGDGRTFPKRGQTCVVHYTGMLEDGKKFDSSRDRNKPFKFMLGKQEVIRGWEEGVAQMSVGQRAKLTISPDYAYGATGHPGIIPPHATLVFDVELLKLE

Sequence of FKBP and wt FRB domain (P62942 2-108 limits assumed): as above

CO[C@H]1[C@@H](O)[C@H](C)C[C@H](C)/C=C/C=C/C=C(\C)[C@@H](c2c[nH]c3c(C)cccc23)C[C@@H]2CC[C@@H](C)[C@@](O)(O2)C(=O)C(=O)N2CCCC[C@H]2C(=O)O[C@H]([C@H](C)C[C@@H]2CC[C@@H](O)[C@H](OC)C2)C[C@H](O)[C@H](C)/C=C(\C)[C@H]1O [AP21967]
heterodimer formation (FKBP and wt FRB domain): not with the wt FRB domain
heterodimer formation [1]: able to form stable heterodimers
